One test has as its system S. aureus ATCC 13709. The test is described as follows: MIC, S. aureus ATCC 13709. It is filed as cell-based. Conditions: for MIC: Staphylococcus aureus, ATCC13709, S. aureus, read-out: MIC Sa.
Another test relates to E. coli ATCC 25922. The test is described as follows: MIC, E. coli ATCC 25922. As to conditions: for MIC: Escherichia coli, ATCC25922, E. coli, read-out: MIC Ec; for EC8 MIC: EC8 not defined. It is filed as cell-based.
Setting [1] is: Alamar Blue read after overnight incubation at 35° C.
The mark [2] stands for this setting: S. aureus, Alamar Blue read after overnight incubation at 35° C.
The mark [3] stands for this setting: E. coli, Alamar Blue read after overnight incubation at 35° C.
The mark [4] stands for this setting: Table 12, Z is C and connected to R4.

Each structure is given as a SMILES string. In brackets after ≈: the same amount, converted by molar mass. Where only a bound is given, the exact number is not on record here.

Regarding `CNc1cccc2c1[nH]c1nc(Oc3cncnc3)cc(N3CC4C(N)C4C3)c12` (centres unmarked) [Compound 3.28], the MIC (as a rule, the smallest concentration in the dilution series that meets the test's criterion for growth inhibition) in the test on S. aureus ATCC 13709 (setting [1]) came out at 1 µg/mL (≈ 2.58 µM); with E. coli ATCC 25922 (setting [1]), 2 µg/mL (≈ 5.16 µM).

As to `CNc1cc(F)cc2c1[nH]c1nc(Oc3cnc(C(C)(C)C)nc3)nc(N3CC4CC(N)C4C3)c12` (centres unmarked) [Compound 4.316], in the test on S. aureus ATCC 13709 (setting [2]), the “MIC Sa” value was no more than 0.5 µg/mL. The “MIC Ec” value in the test on E. coli ATCC 25922 (setting [3]) came out at 1 µg/mL (≈ 2.1 µM).

For the compound `CNc1cccc2c1[nH]c1nc(Oc3ccc[n+]([O-])c3)cc(N3CC4C(N)C4C3)c12` (centres unmarked) [Compound 3.30], the MIC with S. aureus ATCC 13709 (setting [1]) and in the test with E. coli ATCC 25922 (setting [1]) was 16 µg/mL (≈ 39.8 µM) throughout.

For the compound `CNc1cccc2c1[nH]c1nc(Sc3cncnc3)nc(N3CC4C(N)C4C3)c12` (centres unmarked) [Compound 1.43], the MIC with S. aureus ATCC 13709 (setting [1]) was 2 µg/mL (≈ 4.94 µM); in the test on E. coli ATCC 25922 (setting [1]), 8 µg/mL (≈ 19.8 µM).

In turn, `CNc1cc(F)cc2c1[nH]c1nc(Cc3cnc(C)nc3)nc(N3CC4(CCC4N)C3)c12` (centres unmarked) gave an SA MIC with S. aureus ATCC 13709 (Table 11, compounds wherein L = CH2) of no more than 0.5 µg/mL. In the test on E. coli ATCC 25922 (Table 11, L = CH2), this compound came in with an EC8 MIC of 1 µg/mL.

As for `CCc1ncc(Oc2nc(N3CC(N)C4(CC4)C3)c3c(n2)[nH]c2c(NC)cc(F)cc23)cn1` (centres unmarked) [Compound 4.259], the “MIC Sa” value with S. aureus ATCC 13709 (setting [2]) was no more than 0.5 µg/mL. Also, the “MIC Ec” value in the test with E. coli ATCC 25922 (setting [3]) is no more than 0.5 µg/mL.

For the compound `CNc1cc(F)cc2c1[nH]c1nc(Oc3cnc(SC)nc3)nc(N3CC4C(N)C4C3)c12` (centres unmarked) [Compound 4.193], the “MIC Sa” value with S. aureus ATCC 13709 (setting [2]) was no more than 0.5 µg/mL. In addition, in the test on E. coli ATCC 25922 (setting [3]), the “MIC Ec” value is no more than 0.5 µg/mL.

In the case of `CNc1cccc2c1[nH]c1nc(Oc3cncc(C#N)c3)cc(N3CC[C@@H](N)C3)c12` [Compound 3.3], the MIC was 0.5 µg/mL (≈ 1.25 µM) in the test with S. aureus ATCC 13709 (setting [1]) and 1 µg/mL (≈ 2.5 µM) in the test with E. coli ATCC 25922 (setting [1]).

As to `CNc1cccc2c1[nH]c1nc(Sc3cnc4ccc[n+]([O-])c4c3)nc(N3CC4C(N)C4C3)c12` (centres unmarked) [Compound 1.13], the “MIC Sa” value with S. aureus ATCC 13709 (setting [2]) is no more than 0.5 µg/mL. Further, the MIC with E. coli ATCC 25922 (setting [1]) is no more than 0.5 µg/mL.

Take `CNc1cc(F)c(F)c2c1[nH]c1nc(Oc3cnc(C)nc3)nc(N3CCOCC3)c12` [Compound 10.107]: in the test on S. aureus ATCC 13709 (Table 18, Sa), the MIC Sa is no more than 0.5 µg/mL. Also, in the test with E. coli ATCC 25922 (Table 18, Ec), the MIC Ec was no more than 0.5 µg/mL.

As for `CNc1cc(F)cc2c1[nH]c1nc(Oc3cncnc3)nc(N3CC4C[C@@H](N)C4C3)c12` (some centres unmarked) [Compound 4.028], the “MIC Sa” value with S. aureus ATCC 13709 (setting [2]) was no more than 0.5 µg/mL. Besides, the “MIC Ec” value against E. coli ATCC 25922 (setting [3]) is no more than 0.5 µg/mL.

Regarding `CNc1cc(F)cc2c1[nH]c1nc(Oc3cnc4c(c3)ncn4C)nc(N3CC[C@@H](N)C3)c12` [Compound 4.225], in the test with S. aureus ATCC 13709 (setting [2]), the “MIC Sa” value was no more than 0.5 µg/mL. In addition, the “MIC Ec” value with E. coli ATCC 25922 (setting [3]) was found to be 2 µg/mL (≈ 4.47 µM).

Turning to `CNc1cc(F)cc2c1[nH]c1nc(Oc3cnc(C)nc3)nc(N3CC4CONC4C3)c12` (centres unmarked) [Compound 4.122], the “MIC Sa” value against S. aureus ATCC 13709 (setting [2]) was no more than 0.5 µg/mL. Also, the “MIC Ec” value in the test with E. coli ATCC 25922 (setting [3]) amounted to 1 µg/mL (≈ 2.29 µM).

In turn, `CNc1cc(F)cc2c1[nH]c1nc(Oc3cnc(C(C)O)c(F)c3)nc(N3C[C@H]4C[C@@H]3C[C@H]4N)c12` (some centres unmarked) [Compound 10.29] gave an MIC Sa against S. aureus ATCC 13709 (Table 18, Sa) of no more than 0.5 µg/mL. In addition, the MIC Ec against E. coli ATCC 25922 (Table 18, Ec) is no more than 0.5 µg/mL.

On to `CNc1cccc2c1[nH]c1nc(Sc3cncc(S(=O)(=O)N(C)C)c3)nc(N3CC4C(N)C4C3)c12` (centres unmarked) [Compound 1.22], for which the minimum inhibitory concentration (MIC) with S. aureus ATCC 13709 (setting [1]) was 1 µg/mL (≈ 1.96 µM); in the test on E. coli ATCC 25922 (setting [1]) it was 8 µg/mL (≈ 15.7 µM).

As for `CNc1cc(F)cc2c1[nH]c1nc(Oc3cncc([S+](C)[O-])c3)nc(N3CC4C(N)C4C3)c12` (centres unmarked) [Compound 4.351], the “MIC Sa” value against S. aureus ATCC 13709 (setting [2]) was no more than 0.5 µg/mL. Moreover, the “MIC Ec” value in the test on E. coli ATCC 25922 (setting [3]) was determined as 2 µg/mL (≈ 4.28 µM).

With `CNc1cccc2c1[nH]c1nc(Oc3cnc(C)nc3)cc(N3C[C@H](NC)C4(CC4)C3)c12` [Compound 3.49], the minimal inhibitory concentration (MIC) with S. aureus ATCC 13709 (setting [1]) and with E. coli ATCC 25922 (setting [1]) was no more than 0.5 µg/mL throughout.

`CNc1cc(F)c2c3c1[nH]c1nc(Oc4cnc(C)nc4)nc(c13)N1CCC[C@H]1CNC2` showed an SA MIC in the test with S. aureus ATCC 13709 (setting [4]) of 16 µg/mL. Moreover, in the test on E. coli ATCC 25922 (setting [4]), the EC8 MIC is greater than 16 µg/mL.

As for `CNc1cc(F)cc2c1[nH]c1nc(Oc3cnc(C)nc3)nc(-c3cccnc3N)c12` [Compound 4.448], the MIC with S. aureus ATCC 13709 (setting [1]) was no more than 0.5 µg/mL; in the test with E. coli ATCC 25922 (setting [1]), 1 µg/mL (≈ 2.4 µM).

For the compound `CNc1cc(F)cc2c1[nH]c1nc(Oc3cnc(C)nc3)nc(C3=CCNCC3)c12` [Compound 4.162], in the test with S. aureus ATCC 13709 (setting [2]), the “MIC Sa” value came to 8 µg/mL (≈ 19.7 µM). The “MIC Ec” value in the test on E. coli ATCC 25922 (setting [3]) is greater than 16 µg/mL.

Regarding `CNc1cccc2c1[nH]c1nc(Sc3cnc4ccc[n+]([O-])c4c3)nc(N3CC[C@H](N)C3)c12` [Compound 1.14], the MIC in the test with S. aureus ATCC 13709 (setting [1]) is no more than 0.5 µg/mL; in the test with E. coli ATCC 25922 (setting [1]), 1 µg/mL (≈ 2.18 µM).

For `CNc1cc(F)cc2c1[nH]c1nc(Oc3cnc4ccc[n+]([O-])c4c3)nc(N3CC4(CCC4N)C3)c12` (centres unmarked) [Compound 4.342], in the test with S. aureus ATCC 13709 (setting [2]), the “MIC Sa” value was no more than 0.5 µg/mL. In addition, in the test with E. coli ATCC 25922 (setting [3]), the “MIC Ec” value was determined as 4 µg/mL (≈ 8.22 µM).

For `CNc1cccc2c1[nH]c1nc(Sc3cnc4ccc[n+]([O-])c4c3)nc(N3CC(CN)C3)c12` [Compound 1.20], the MIC with S. aureus ATCC 13709 (setting [1]) came to 4 µg/mL (≈ 8.72 µM); in the test with E. coli ATCC 25922 (setting [1]), 16 µg/mL (≈ 34.9 µM).

For the compound `CNc1cc(F)cc2c1[nH]c1nc(Oc3cnc(N)nc3)nc(N3CCC4(C[C@H]4N)C3)c12` (some centres unmarked) [Compound 4.174], the “MIC Sa” value against S. aureus ATCC 13709 (setting [2]) was no more than 0.5 µg/mL. The “MIC Ec” value in the test with E. coli ATCC 25922 (setting [3]) is no more than 0.5 µg/mL.

As for `CCc1cc(F)cc2c1[nH]c1nc(Oc3cncnc3)nc(N3CC4C(N)C4C3)c12` (centres unmarked) [Compound 2.2], the “MIC Sa” value against S. aureus ATCC 13709 (setting [2]) is 2 µg/mL (≈ 4.93 µM). Moreover, the “MIC Ec” value against E. coli ATCC 25922 (setting [3]) is 4 µg/mL (≈ 9.87 µM).
